Where two headings read alike, the source gives them in different places.

One test has as its target T1, hα2B receptor (Homo sapiens, UniProt P18089).
T1 construct: expressed in transfected cells
T1 sequence (P18089 1-450): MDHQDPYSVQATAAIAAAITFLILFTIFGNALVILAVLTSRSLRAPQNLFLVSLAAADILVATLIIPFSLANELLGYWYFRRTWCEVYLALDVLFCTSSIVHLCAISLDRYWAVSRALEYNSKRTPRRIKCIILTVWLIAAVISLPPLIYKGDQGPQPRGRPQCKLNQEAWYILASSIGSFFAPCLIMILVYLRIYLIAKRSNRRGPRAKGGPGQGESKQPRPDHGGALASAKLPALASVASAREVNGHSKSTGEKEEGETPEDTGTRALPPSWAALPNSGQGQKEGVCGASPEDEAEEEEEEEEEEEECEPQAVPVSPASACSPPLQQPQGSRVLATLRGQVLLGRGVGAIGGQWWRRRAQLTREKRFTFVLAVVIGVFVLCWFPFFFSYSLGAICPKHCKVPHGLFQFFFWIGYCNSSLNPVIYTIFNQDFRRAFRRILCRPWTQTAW
The experiment in a line: Radioligand binding experiment for hα2B receptor ([3H]-raulwolscine). Conditions: [3H]raulwolscine 1 nM. How it is done: (§1) The interaction of the compounds of Formula (I) with hα2-receptors and h5-HT-transporters was assessed in in vitro radioligand binding experiments. In general, a low concentration of a radioligand with a high binding affinity for a particular receptor or transporter is incubated with a sample of a tissue preparation enriched in a particular receptor or transporter or with a preparation of cells expressing cloned human receptors in a buffered medium. During the incubation, the radioligand binds to the receptor or transporter. When equilibrium of binding is reached, the receptor bound radioactivity is separated from the non-bound radioactivity, and the receptor- or transporter-bound activity is counted. The interaction of the test compounds with the receptor is assessed in competition binding experiments. Various concentrations of the test compound are added to the incubation mixture containing the receptor- or transporter preparation and the radioligand. The test compound in proportion to its binding affinity and its concentration inhibits binding of the radioligand. The radioligand used for hα2A, hα2B and hα2C receptor binding was [^3H]-raulwolscine and for the h5-HT transporter was [^3H]paroxetine.
(§2) CHO cells, stabile transfected with human adrenergic-α2A-, -α2B or α2C receptor cDNA, were cultured in Dulbecco's Modified Eagle's Medium (DMEM)/Nutrient mixture Ham's F12 (ratio 1:1)(Gibco, Gent-Belgium) supplemented with 10% heat inactivated fetal calf serum (Life Technologies, Merelbeke-Belgium) and antibiotics (100 IU/ml penicillin G, 100 μg/ml streptomycin sulphate, 110 μg/ml pyruvic acid and 100 μg/ml L-glutamine). One day before collection, cells were induced with 5 mM sodiumbutyrate. Upon 80–90% of confluence, cells were scraped in phosphate buffered saline without Ca^2+ and Mg^2+ and collected by centrifugation at 1500×g for 10 min. The cells were homogenised in Tris-HCl 50 mM using an Ultraturrax homogenizer and centrifuged for 10 min at 23,500×g. The pellet was washed once by resuspension and rehomogenization and the final pellet was resuspended in Tris-HCl, divided in 1 ml aliquots and stored at −70° C.
(§3) Membranes were thawed and re-homogenized in incubation buffer (glycylglycine 25 mM, pH 8.0). […] Filters were rinsed extensively with ice-cold rinsing buffer (Tris-HCl 50 mM pH 7.4). Filter-bound radioactivity was determined by scintillation counting in a Topcount (Packard, Meriden, Conn.) and results were expressed as counts per minute (cpm). Non-specific binding was determined in the presence of 1 μM oxymetazoline for hα2A- and hα2B receptors and 1 μM spiroxatrine for hα2C receptors.
(§4) Data from assays in the presence of compound were calculated as a percentage of total binding measured in the absence of test compound. Inhibition curves, plotting percent of total binding versus the log value of the concentration of the test compound, were automatically generated, and sigmoidal inhibition curves were fitted using non-linear regression. The pIC50 values of test compounds were derived from individual curves.

Another test concerns the target T2, hα2C receptor (Homo sapiens, UniProt P18825).
T2 construct: expressed in transfected cells
T2 sequence (P18825 1-462): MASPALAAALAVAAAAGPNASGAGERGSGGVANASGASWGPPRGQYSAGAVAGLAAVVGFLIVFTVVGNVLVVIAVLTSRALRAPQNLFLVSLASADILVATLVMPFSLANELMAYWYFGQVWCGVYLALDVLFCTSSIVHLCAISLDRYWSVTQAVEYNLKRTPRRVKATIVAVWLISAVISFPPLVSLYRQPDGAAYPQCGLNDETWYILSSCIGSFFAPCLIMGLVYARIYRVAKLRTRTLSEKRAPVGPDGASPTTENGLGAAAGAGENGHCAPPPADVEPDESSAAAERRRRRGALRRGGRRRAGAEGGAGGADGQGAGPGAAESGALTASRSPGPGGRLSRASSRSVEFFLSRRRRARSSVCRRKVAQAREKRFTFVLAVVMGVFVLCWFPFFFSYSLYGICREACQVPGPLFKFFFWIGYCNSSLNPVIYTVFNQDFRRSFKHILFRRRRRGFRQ
Description: Radioligand binding experiment for hα2C receptor ([3H]-raulwolscine). On the procedure:
as §1, §2, §3, §4

The target in another test is T3, h5-HT transporter (Homo sapiens, UniProt P31645).
T3 construct: Human platelet membranes (Oceanix Biosciences Corporation, Hanover, Md., USA) were thawed; tissue Oceanix Biosciences Corporation, Hanover, Md., USA; host or cells: human platelet membranes
Description: Radioligand binding experiment for 5-HT transporter ([3H]paroxetine, human platelet membranes). How it is done: as §1
Human platelet membranes (Oceanix Biosciences Corporation, Hanover, Md., USA) were thawed, diluted in buffer (Tris-HCl 50 mM, 120 mM NaCl and 5 mM KCl) and quickly (max 3 s) homogenised with an Ultraturrax homogenizer. […] Filters were rinsed extensively with ice-cold buffer and radioactivity on the filters was counted in a Topcount liquid scintillation counter (Packard, Meriden, Conn.). Data were expressed as cpm. Imipramine (at 1 μM final concentration) was used to determine the non-specific binding.
as §4

Setting [1] is: membranes of CHO cells expressing human α2B receptor.
Setting [2] is: membranes of CHO cells expressing human α2C receptor, [3H]raulwolscine 1 nM.
The mark [3] stands for this setting: human platelet membranes, [3H]paroxetine 0.5 nM.
Where [4] appears, read: membranes of CHO cells expressing human α2B receptor, read-out: hα2B pIC50 (converted).
Where [5] appears, read: membranes of CHO cells expressing human α2C receptor, [3H]raulwolscine 1 nM, read-out: hα2C pIC50 (converted).
Where [6] appears, read: human platelet membranes, [3H]paroxetine 0.5 nM, read-out: 5HTT pIC50 (converted).
The mark [7] stands for this setting: read-out: hα2C pIC50 (converted).
Setting [8] is: read-out: 5HTT pIC50 (converted).

T3 sequence (P31645 whole entry): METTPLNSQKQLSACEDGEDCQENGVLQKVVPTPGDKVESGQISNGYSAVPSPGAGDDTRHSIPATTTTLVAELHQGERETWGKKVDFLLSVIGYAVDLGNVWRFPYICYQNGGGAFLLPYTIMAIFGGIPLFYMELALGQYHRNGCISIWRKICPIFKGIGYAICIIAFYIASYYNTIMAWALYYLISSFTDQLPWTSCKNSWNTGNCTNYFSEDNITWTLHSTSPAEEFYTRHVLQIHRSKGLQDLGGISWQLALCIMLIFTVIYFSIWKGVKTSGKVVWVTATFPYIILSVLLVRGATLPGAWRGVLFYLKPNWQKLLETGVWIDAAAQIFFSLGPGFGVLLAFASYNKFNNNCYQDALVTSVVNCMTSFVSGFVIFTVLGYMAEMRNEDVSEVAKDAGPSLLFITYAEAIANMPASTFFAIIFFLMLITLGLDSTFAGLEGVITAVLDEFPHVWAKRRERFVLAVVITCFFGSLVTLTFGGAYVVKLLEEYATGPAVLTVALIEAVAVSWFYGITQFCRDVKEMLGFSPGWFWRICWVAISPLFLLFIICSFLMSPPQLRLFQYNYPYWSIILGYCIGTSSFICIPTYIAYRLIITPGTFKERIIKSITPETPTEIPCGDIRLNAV

`O=C(N1CC2C(=NOC2CN2CCN(CC=Cc3ccccc3)CC2)c2ccccc21)C(F)(F)F` (centres unmarked) [Compound 224]: the “hα2B pIC50” value on hα2B receptor (setting [1]) is recorded as 7.66. For the same compound, the “hα2C pIC50” value on hα2C receptor (setting [2]) worked out at 7.13. In addition, the “5HTT pIC50” value on h5-HT transporter (setting [3]) was found to be 7.31.

In the case of `CCOC(=O)N1CC2C(=NOC2CN2CCN(CC=Cc3ccccc3)CC2)c2ccccc21` (centres unmarked) [Compound 226], the “hα2B pIC50” value on hα2B receptor (setting [1]) was 7.09. In addition, the “hα2C pIC50” value at hα2C receptor (setting [2]) was found to be 6.96. Besides, the “5HTT pIC50” value at h5-HT transporter (setting [3]) stood at 8.08.

As for `CC(=Cc1ccccc1)CN1CCN(CC2ON=C3c4ccccc4NCC32)CC1` (centres unmarked) [Compound 234], on hα2B receptor (setting [1]), the “hα2B pIC50” value is reported as 8.88. For the same compound, the “hα2C pIC50” value on hα2C receptor (setting [2]) is listed as 8.41. In addition, at h5-HT transporter (setting [3]), the “5HTT pIC50” value came to 7.71.

On to `CC(=Cc1ccccc1)CN1CCN(CC2ON=C3c4ccc(O)cc4OCC32)CC1` (centres unmarked) [Compound 237], for which the IC50 is 1.26 nM on hα2B receptor (setting [4]), 1.17 nM on hα2C receptor (setting [5]) and 11.5 nM at h5-HT transporter (setting [6]).

Take `CCNC(=O)Oc1ccc2c(c1)OCC1C2=NOC1CN1CCN(CC(C)=Cc2ccccc2)CC1` (centres unmarked) [Compound 238]: the IC50 on hα2B receptor (hα2B pIC50, membranes of CHO cells expressing human α2B receptor) is 2.4 nM; at hα2C receptor (hα2C pIC50, membranes of CHO cells expressing human α2C receptor, [3H]raulwolscine 1 nM) it was 2.57 nM; at h5-HT transporter (5HTT pIC50), 8.51 nM.

For the compound `COCCOc1ccc2c(c1)OCC1C2=NOC1CN1CCN(CC(C)=Cc2ccccc2)CC1` (centres unmarked) [Compound 239], the IC50 on hα2B receptor (setting [4]) is 2.4 nM; at hα2C receptor (setting [5]), 0.288 nM; on h5-HT transporter (setting [6]), 14.1 nM.

Consider `CC(=Cc1ccccc1)CN1CCN(CC2ON=C3c4ccc(OCCN(C)C)cc4OCC32)CC1` (centres unmarked) [Compound 242], for which the values for the IC50 at hα2B receptor (setting [4]) and at h5-HT transporter (setting [6]) were 0.363 nM and 11.2 nM, respectively.

Regarding `CC(=Cc1ccccc1)CN1CCN(CC2ON=C3c4ccc(OC5CCCC5)cc4OCC32)CC1` (centres unmarked) [Compound 243], the “hα2B pIC50” value on hα2B receptor (setting [1]) is given as 7.77. Besides, the “hα2C pIC50” value at hα2C receptor (setting [2]) came out at 8.29. For the same compound, the “5HTT pIC50” value at h5-HT transporter (setting [3]) came to 6.75.

As for `CC(=Cc1ccccc1)CN1CCN(CC2ON=C3c4ccc(OC(=O)C5CC5)cc4OCC32)CC1` (centres unmarked) [Compound 250], the results for the IC50 at hα2B receptor (setting [4]), at hα2C receptor (setting [7]) and at h5-HT transporter (setting [6]) were 6.76 nM, 3.31 nM and 81.3 nM, respectively.

Take `C=CC(=O)Oc1ccc2c(c1)OCC1C2=NOC1CN1CCN(CC(C)=Cc2ccccc2)CC1` (centres unmarked) [Compound 251]: the “hα2B pIC50” value on hα2B receptor (setting [1]) is reported as 8.31. Besides, the “hα2C pIC50” value on hα2C receptor (setting [2]) is given as 8.26. Also, the “5HTT pIC50” value at h5-HT transporter (setting [3]) worked out at 6.89.

`COc1cc2c(cc1OC)C1=NOC(CN3CCN(Cc4ccc5ccccc5c4)CC3)C1CN2` (centres unmarked) [Compound 272]: the IC50 is 26.9 nM at hα2B receptor (setting [4]), 135 nM on hα2C receptor (setting [5]) and 4.79 nM at h5-HT transporter (setting [8]).

Turning to `CC(=Cc1ccccc1)CN1CCN(CC2ON=C3c4ccc(OC(=O)C(C)(C)C)cc4OCC32)CC1` (centres unmarked) [Compound 329], the IC50 on hα2B receptor (setting [4]) is 27.5 nM; on hα2C receptor (setting [7]), 18.2 nM; at h5-HT transporter (setting [8]), 33.1 nM.

For the compound `COc1cc2c(cc1OC)C1=NOC(CN3CCN(CC=Cc4cccc(F)c4)CC3)C1CN2` (centres unmarked) [Compound 351], the “hα2B pIC50” value on hα2B receptor (setting [1]) amounted to 8.16. At hα2C receptor (setting [2]), the “hα2C pIC50” value was determined as 8.19. Also, the “5HTT pIC50” value on h5-HT transporter (setting [3]) is 8.06.

For the origin of these results see patent US7169786B2, “Isoxazoline derivatives as anti-depressants” (priority 2001, dated 2007).
